Assay results as given in ChEMBL document CHEMBL3779878, “Indomethacin based new triazolothiadiazine derivatives: Synthesis, evaluation of their anticancer effects on T98 human glioma cell line related to COX-2 inhibition and docking studies” (2016).
The source made the active and inactive calls. The calls are words filed in the database; no cut-off is given here.

Columns and labels:
[1] = Induction of apoptosis in human T98 cells assessed as total death rate at 50 uM after 24 hrs by Annexin-V-FITC/propidium iodide staining based flow cytometry analysis (reference value: 3.8 %); format: functional
[2] = Antiproliferative activity against human T98 cells assessed as reduction in survival rate at 50 uM after 24 hrs by MTT assay relative to control; format: functional
[3] = Reduction in Cox-2 mRNA expression levels in human T98 cells by real-time PCR assay; format: functional, cell-based
T98 [4] = assay: Induction of apoptosis in human T98 cells assessed as late apoptotic cells at 100 uM after 24 hrs by Annexin-V-FITC/propidium iodide staining based flow cytometry analysis (reference value: 2.7 +/- 1.4 %); format: functional
T98 [5] = assay: Effect on cytochrome-c mRNA expression levels in human T98 cells at 50 to 100 uM by real-time PCR assay; format: functional, cell-based
[6] = Induction of apoptosis in human T98 cells assessed as total death rate at 100 uM after 24 hrs by Annexin-V-FITC/propidium iodide staining based flow cytometry analysis (reference value: 3.8 %); format: functional
T98 [7] = assay: Effect on caspase 8 mRNA expression levels in human T98 cells at 50 to 100 uM by real-time PCR assay; format: functional, cell-based
T98 [8] = assay: Induction of apoptosis in human T98 cells assessed as late apoptotic cells at 50 uM after 24 hrs by Annexin-V-FITC/propidium iodide staining based flow cytometry analysis (reference value: 2.7 +/- 1.4 %); format: functional
T98 [9] = assay: Antiproliferative activity against human T98 cells assessed as reduction in survival rate at 1 to 100 uM after 24 hrs by MTT assay; format: functional, cell-based
T98 [10] = assay: Induction of apoptosis in human T98 cells assessed as alive cells at 50 uM after 24 hrs by Annexin-V-FITC/propidium iodide staining based flow cytometry analysis (reference value: 95 +/- 5.6 %); format: functional
T98 [11] = assay: Induction of apoptosis in human T98 cells assessed as alive cells at 100 uM after 24 hrs by Annexin-V-FITC/propidium iodide staining based flow cytometry analysis (reference value: 95 +/- 5.6 %); format: functional
T98 [12] = assay: Induction of apoptosis in human T98 cells assessed as early apoptotic cells at 50 uM after 24 hrs by Annexin-V-FITC/propidium iodide staining based flow cytometry analysis (reference value: 1.1 +/- 0.3 %); format: functional
T98 [13] = assay: Induction of apoptosis in human T98 cells assessed as early apoptotic cells at 100 uM after 24 hrs by Annexin-V-FITC/propidium iodide staining based flow cytometry analysis (reference value: 1.1 +/- 0.3 %); format: functional
T98 [14] = assay: Effect on caspase 3 mRNA expression levels in human T98 cells at 50 to 100 uM by real-time PCR assay; format: functional, cell-based
[15] = Antiproliferative activity against human T98 cells assessed as reduction in survival rate at 100 uM after 24 hrs by MTT assay relative to control; format: functional
T98 [16] = assay: Effect on caspase 9 mRNA expression levels in human T98 cells at 50 to 100 uM by real-time PCR assay; format: functional, cell-based

With `COc1ccc2c(c1)c(Cc1nnc3n1N=C(c1ccc(C)cc1)CS3)c(C)n2C(=O)c1ccc(Cl)cc1` the Activity [1] was 49%, the Activity [2] was 25% and the Activity [3] was “Dose-dependent effect”. The Activity (T98 [4]) was 47%, the Activity (T98 [5]) was “inactive” and the Activity [6] was 59%. For the same compound, the Activity (T98 [7]) was “inactive”, the Activity (T98 [8]) was 38% and the Activity (T98 [9]) was “Active”. For the same compound, the Activity (T98 [10]) was 39%, the Activity (T98 [11]) was 31% and the Activity (T98 [12]) was 11%. For the same compound, the Activity (T98 [13]) was 12%, the Activity (T98 [14]) was “inactive” and the Activity [15] was 40%. For the same compound, the Activity (T98 [16]) was “inactive”.
